Results from US7919508B2, “3-piperidinylisochroman-5-ols as dopamine agonists” (Aventis Pharmaceuticals Inc., priority 2004, dated 2011).
Structures can show the parent of a compound that is named as a salt.

Assays:
[1] = target: T1, human dopamine D1 receptor (Homo sapiens, UniProt P21728); assay: [3H]-SCH-23390 binding to cloned human dopamine D1 receptors (CHO cell membranes); conditions: competitive binding, [3H]-SCH-23390, cloned human D1 in CHO membranes; read-out: D1 affinity Ki
T1 construct: A 1.4 Kb Hind III to Xho I fragment was subcloned into the vector pMMLV; expressed in transfected cells; host or cells: CHO cells, clone CHO-D1M#9 (plasmid pHD1MMLV), membranes
T1 sequence (P21728 whole entry, the tested form may be a part): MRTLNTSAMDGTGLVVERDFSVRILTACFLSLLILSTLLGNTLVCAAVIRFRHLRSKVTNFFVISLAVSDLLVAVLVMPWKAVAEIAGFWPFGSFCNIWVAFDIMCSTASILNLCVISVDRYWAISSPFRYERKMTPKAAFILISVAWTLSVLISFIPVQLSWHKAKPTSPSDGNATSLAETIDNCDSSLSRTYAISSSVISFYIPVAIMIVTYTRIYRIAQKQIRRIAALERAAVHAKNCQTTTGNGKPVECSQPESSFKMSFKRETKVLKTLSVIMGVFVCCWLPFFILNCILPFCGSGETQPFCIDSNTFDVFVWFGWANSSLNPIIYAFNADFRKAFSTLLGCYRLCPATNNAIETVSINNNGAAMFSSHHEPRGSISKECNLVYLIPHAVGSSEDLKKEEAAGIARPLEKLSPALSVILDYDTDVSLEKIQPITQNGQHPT

D1 receptor = target: T2, D1 receptor (Homo sapiens, UniProt P21728); assay: D1 Activation Adenylyl Cyclase Assay (cAMP FlashPlate, D1 transfected CHO cell line); format: cell-based; conditions: agonist activity at the D1 receptor, adenylate cyclase assay, D1 transfected CHO cell line; read-out: D1 EC50
T2 construct: expressed in transfected cells; host or cells: D1 transfected CHO cell line
T2 sequence (P21728 whole entry): as the sequence (P21728 whole entry, the tested form may be a part) above
Description: D1 Activation Adenylyl Cyclase Assay
Purpose: To measure D1-agonist activity compounds using an Adenylyl Cyclase Activation Flash Plate Assay from NEN.
Buffers: Activation and Detection buffers are provided from NEN: Catalog # SMP004A.
Maintenance of D1 transfected CHO cell line: • 1. Cells are grown in a 150 cc flask in an incubator at 37° C. with 5% CO2 for 2-3 days (4 maximum) until confluent. • 2. Aspirate off old media (Cells adhere to the plastic flask), wash 2× with sterile PBS. • 3. Add ˜5 mL of Trypsin EDTA (enough to cover bottom of the flask) for 5 min. at RT. • 4. Stop digestion with 15 mL of Media (Ham's F12 plus 10% FBS, 1% P/S, 400 μg/mL G418). • Bang flask on counter to release them from the flask. • 5. Add 2 mL of this to 30 mL of Media in a fresh flask. Return to incubator. Preparation of Cells for Assay: • 1. Loosen the cells with 5 mL Vercine (EDTA)/flask for 10 minutes in incubator. • 2. Add 20 mL of Serum-free media/flask. Transfer to 50-mL Falcon tube. • 3. Spin down cells at 1000 RPM for 5 minutes at 4° C. • 4. Aspirate off old media and resuspend in 5 mL of Serum-free media/plate to be done. • 5. Dilute 10 μL 1/10 in 90 μL Trypan Blue solution and count with a hemocytometer. • Count (live cells only) all four areas and average them. • Count X 10^5 equals cells/mL (including accounting for dilution in Trypan). • 6. Dilute to 50,000 cells/50 μL (1,000,000 cells/mL) in Serum-free media. • 7. Put 50 μL/well in Rows 3-12 of a cAMP FlashPlate. • 8. Put in incubator at 37° C. for 2-4 hours, to allow cells to recover and attach. Adenylyl Cyclase Activation Assay: • 1. Prepare the cAMP standards: • Add 130 μL/well of stimulation buffer to each row of a separate 96-well “standard” plate, 2 columns/plate. • Dilute stock cAMP standard 1/5 with stimulation buffer (final concentration is 1000 pmol/mL). Add 130 μL of this to row A. • Make 1/2 serial dilutions by adding 130 μL from each well to the next (A-G), mixing between each. • Final concentrations are: • A: 500, B: 250, C: 125, D: 62.5, E: 31.25, F: 15.6, G: 7.8, H: 0 pmol/mL. • Place 100 μL from each row from 2 columns of the standard plate into columns 1 and 2 of each “reaction” plate. • 2. Prepare the negative and positive control in the “reaction” plate: • Column 3, rows A-D, add 100 μL stimulation buffer (negative control). • Column 3, rows E-H, add 90 μL of stimulation buffer plus 10 μL of 200 μM APO (positive control, […]). (10 μL 10 mM APO, plus 490 μL stim. buffer=1/50 dilution.) • 3. Prepare the agonist compound dilutions in the “compound” plate: • Add 80 μL of stimulation buffer to row A (One column for each compound), and 90 μL of stimulation buffer to rows B—H. • Add 20 μL of 10 mM of each compound to appropriate row A. • Make 1/10 serial dilutions by adding 10 μL from each well to the next (A-H), mixing between each. • 4. […]. Prepare Detection/Stop buffer by adding 90 μL/plate of cAMP-^125I to 10 mL/plate plus 6 mL (for dead volume) of detection buffer. Steps 6-8 performed with the Multi-Mek. • 6. Add 50 μL to each well of the FlashPlate with CHO cells set up earlier. • 7. Incubate at RT for 8 minutes. • 8. Stop reaction by adding 100 μL of detection/stop buffer to each well. • 9. Cover with plastic film and incubate at RT for 16-24 hours (don't wait more than 24 hours). • 10. Count in a Packard Top-Count. Calculations: • 1. Raw signals generated by cAMP standard wells, without cells, are averaged at each cAMP concentration and converted to % B/Bo by dividing the raw signal at each cAMP concentration by the raw signal with no cAMP added. • 2. These values are used to generate a standard curve by plotting cAMP concentration versus % B/Bo. • 3. Raw data for each compound at each concentration is also converted to % B/B. by the same method. • 4. These values are then converted to pmol cAMP/mL using the standard curve. • 5. These cAMP values are then averaged across the three replicates for each compound concentration. • 6. […]

[2] = target: human dopamine D2Long (D2L) receptors (Homo sapiens, UniProt P14416)
human dopamine D2Long (D2L) receptors, sequence (P14416 whole entry): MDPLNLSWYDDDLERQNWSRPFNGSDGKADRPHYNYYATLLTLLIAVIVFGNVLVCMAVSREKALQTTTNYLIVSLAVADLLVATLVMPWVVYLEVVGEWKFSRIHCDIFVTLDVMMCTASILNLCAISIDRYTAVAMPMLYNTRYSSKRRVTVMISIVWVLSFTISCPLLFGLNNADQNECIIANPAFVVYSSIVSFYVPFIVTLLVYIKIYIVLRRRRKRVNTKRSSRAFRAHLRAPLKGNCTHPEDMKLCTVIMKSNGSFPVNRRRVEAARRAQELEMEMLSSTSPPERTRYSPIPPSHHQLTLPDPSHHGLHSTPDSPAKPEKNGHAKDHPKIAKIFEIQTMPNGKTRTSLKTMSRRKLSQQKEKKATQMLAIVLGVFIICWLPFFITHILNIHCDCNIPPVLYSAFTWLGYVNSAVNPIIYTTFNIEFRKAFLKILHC
Description: [N-Methyl-^3H]Spiroperidol Binding to Cloned Human Dopamine D2Long Receptors
This assay measures the in vitro activity of drugs on cloned human dopamine D2Long (D2L) receptors and predicts the direct dopamine-displacing properties of neuropsychiatric, cardiovascular and renal agents at human dopamine D2 receptors.
Cells were maintained in Ham's F12+10% Fetal Bovine Serum+Penicillin/Streptomycin (100 U/ml/100 μg/ml)+G418 (400 μg/ml) medium and were split using Trypsin-EDTA (1 ml/plate, room temperature for ˜2 min. or until cells have lifted off plates). • 2. […] Plates are incubated at 37° C.+5% CO2 for ˜3 days or until cells were confluent.
Cells are harvested by mechanical scraping, washed using PBS collected in 250 ml Corning polypropylene centrifuge tubes, spun down and resuspended in dH2O (final volume per harvest approximately 60 ml). Protein determination is made according to the method of Lowry (Biorad DC Assay Kit). Following the determination of the protein concentration, the protein is diluted into distilled water with 10% DMSO to the appropriate volume based on expression levels (Bmax). The concentrated protein is aliquoted into 1.5 ml screw top eppendorf tubes and placed into a −80° C. freezer.
Assay Requirement: 1 cryovial per two 96 well plates
0.5M Tris Wash Buffer, pH 7.7 • a) 44.4 g Tris HCl • 26.5 g Tris Base • q.s. to 1 Liter (0.5 M Tris buffer, pH 7.7 at 37° C.) • b) make a 1:10 dilution in distilled H2O (0.05 M. Tris buffer, pH 7.7) • 2. Tris Buffer containing physiological salts • a) Stock buffer • NaCl 7.014 g • KCl 0.372 g • CaCl2 0.222 g • MgCl2 0.204 g • q.s. To 100 ml with 0.5 M. Tris Buffer • b) Dilute 1:10 in distilled H2O • This yields 0.05 M. Tris HCl, pH 7.7, containing NaCl (120 mM), KCl (5 mM), CaCl2 (2 mM) and MgCl2 (1 mM) • Optional: add 0.1% ascorbic acid and check pH (in assays with compounds that may oxidize. • c) 1.0% polyethyleneimine stock in 0.5M Tris (reagent 1.a) • Dilute 1:10 in distilled H2O Binding Assay • 750 μl Tissue • 150 μl [^3H]NMSP • 100 μl vehicle (for total binding) or 30 μM (−)
eticlopride (for nonspecific binding) or appropriate drug concentration.
The 96-Well Packard Unifilters GF/B are incubated for >1 h at 25° C. in 0.1% polyethylenimine. The cold tissue is added last and mixed on a orbital shaker for a few seconds and is then incubated at 37° C. for 30 min in a shaking water bath. The assay is stopped by rapid filtration through Packard Unifilter plates. The filter membranes are then washed with 15 ml of ice-cold 0.05 M Tris buffer. The filters are then dried (˜15 min. under a heat lamp or incubated for 15 min. in a 60° C. oven) and a bottom seal is applied. Then 40 μl of Packard Microscint 20 scintillation cocktail are added and a permanent topseal (Type P) is applied and heat sealed. The plates are placed in a Packard Topcount.
Specific binding is defined as the difference between total binding and the binding in the presence of 3 μM S-(−)-eticlopride. Total binding is approximately 10% of the total added ligand. […] The percent inhibition at each drug concentration is the mean of duplicate determinations.

## Cc1ccc2c(c1O)C[C@@H](C1CCN(CCC(C)NC(=O)c3ccc(Cl)cc3)CC1)O[C@H]2CN (stereo partly drawn) [Example 13, N-{3-[4-((1R,3S)-1-Aminomethyl-5-hydroxy-6-methyl-isochroman-3-yl)-piperidin-1-yl]-1-methyl-propyl}-4-chloro-benzamide dihydrochloride]
[1]
  Ki: 0.128 µM
D1 receptor
  EC50: 0.03 µM
[2]
  Ki: 0.361 µM

## Cc1ccc2c(c1O)C[C@@H](C1CCN(CCC(C)NC(=O)c3ccc(C(F)(F)F)cc3)CC1)O[C@H]2CN (stereo partly drawn) [Example 16, N-{3-[4-((1R,3S)-1-Aminomethyl-5-hydroxy-6-methyl-isochroman-3-yl)-piperidin-1-yl]-1-methyl-propyl}-4-trifluoromethyl-benzamide dihydrochloride]
[1]
  Ki: 0.149 µM
D1 receptor
  EC50: 0.056 µM
[2]
  Ki: 0.379 µM

## Cc1ccc2c(c1O)C[C@@H](C1CCN(CCC(C)NC(=O)c3ccc(Cl)cc3Cl)CC1)O[C@H]2CN (stereo partly drawn) [Example 17, N-{3-[4-((1R,3S)-1-Aminomethyl-5-hydroxy-6-methyl-isochroman-3-yl)-piperidin-1-yl]-1-methyl-propyl}-2,4-dichloro-benzamide dihydrochloride]
[1]
  Ki: 0.138 µM
D1 receptor
  EC50: 0.018 µM
[2]
  Ki: ≥ 100 µM

## Cc1ccc2c(c1O)C[C@@H](C1CCN(CCC(C)NC(=O)c3ccc4ccccc4c3)CC1)O[C@H]2CN (stereo partly drawn) [Example 19, Naphthalene-2-carboxylic acid {3-[4-((1R,3S)-1-aminomethyl-5-hydroxy-6-methyl-isochroman-3-yl)-piperidin-1-yl]-1-methyl-propyl}-amide dihydrochloride]
[1]
  Ki: 0.158 µM
D1 receptor
  EC50: 0.0061 µM
[2]
  Ki: 0.31 µM

## Cc1ccc2c(c1O)C[C@@H](C1CCN(CCC(C)NC(=O)c3cc4ccccc4s3)CC1)O[C@H]2CN (stereo partly drawn) [Example 20, Benzo[b]thiophene-2-carboxylic acid {3-[4-((1R,3S)-1-aminomethyl-5-hydroxy-6-methyl-isochroman-3-yl)-piperidin-1-yl]-1-methyl-propyl}-amide dihydrochloride]
[1]
  Ki: 0.0524 µM
D1 receptor
  EC50: 0.061 µM
[2]
  Ki: 0.265 µM

## Cc1ccc2c(c1O)C[C@@H](C1CCN(CCC(C)NC(=O)c3ccccc3)CC1)O[C@H]2CN (stereo partly drawn) [Example 21, N-{3-[4-((1R,3S)-1-Aminomethyl-5-hydroxy-6-methyl-isochroman-3-yl)-piperidin-1-yl]-1-methyl-propyl}-benzamide dihydrochloride]
[1]
  Ki: 0.12 µM
D1 receptor
  EC50: 0.014 µM
[2]
  Ki: ≥ 100 µM

## Cc1ccc2c(c1O)C[C@@H](C1CCN(CCC(C)NC(=O)c3ccc(F)cc3)CC1)O[C@H]2CN (stereo partly drawn) [Example 22, N-{3-[4-((1R,3S)-1-Aminomethyl-5-hydroxy-6-methyl-isochroman-3-yl)-piperidin-1-yl]-1-methyl-propyl}-4-fluoro-benzamide dihydrochloride]
[1]
  Ki: 0.114 µM
D1 receptor
  EC50: 0.024 µM
[2]
  Ki: 0.564 µM

## Cc1ccc2c(c1O)C[C@@H](C1CCN(CCC(C)NC(=O)c3cccs3)CC1)O[C@H]2CN (stereo partly drawn) [Example 25, Thiophene-2-carboxylic acid {3-[4-((1R,3S)-1-aminomethyl-5-hydroxy-6-methyl-isochroman-3-yl)-piperidin-1-yl]-1-methyl-propyl}-amide dihydrochloride]
[1]
  Ki: 0.0561 µM
D1 receptor
  EC50: 0.054 µM
[2]
  Ki: 0.218 µM

## Cc1ccc2c(c1O)C[C@@H](C1CCN(Cc3ccc(F)cc3)CC1)O[C@H]2CN [Example 26, (1R,3S)-1-Aminomethyl-3-[1-(4-fluoro-benzyl)-piperidin-4-yl]-6-methyl-isochroman-5-ol dihydrobromide]
[1]
  Ki: 0.033 µM
D1 receptor
  EC50: 0.011 µM
[2]
  Ki: ≥ 10 µM

## Cc1ccc2c(c1O)C[C@@H](C1CCN(CC(c3ccccc3)c3ccccc3)CC1)O[C@H]2CN [Example 28, (1R,3S)-1-Aminomethyl-3-[1-(2,2-diphenyl-ethyl)-piperidin-4-yl]-6-methyl-isochroman-5-ol dihydrobromide]
[1]
  Ki: 0.082 µM
D1 receptor
  EC50: 0.131 µM
[2]
  Ki: 0.18 µM

## Cc1ccc2c(c1O)C[C@@H](C1CCN(CC(C)c3ccccc3)CC1)O[C@H]2CN (stereo partly drawn) [Example 29, (1R,3S)-1-Aminomethyl-3-[1-(2-phenyl-propyl)-piperidin-4-yl]-6-methyl-isochroman-5-ol dihydrobromide]
[1]
  Ki: 0.064 µM
D1 receptor
  EC50: 0.04 µM
[2]
  Ki: ≥ 10 µM

## Cc1ccc2c(c1O)C[C@@H](C1CCN(C(C)Cc3ccccc3)CC1)O[C@H]2CN (stereo partly drawn) [Example 30, (1R,3S)-1-Aminomethyl-6-methyl-3-[1-(1-methyl-2-phenyl-ethyl)-piperidin-4-yl]-isochroman-5-ol dihydrobromide]
[1]
  Ki: 0.0552 µM
D1 receptor
  EC50: 0.06 µM
[2]
  Ki: ≥ 10 µM

## COc1cccc(CN2CCC([C@@H]3Cc4c(ccc(C)c4O)[C@H](CN)O3)CC2)c1 [Example 31, (1R,3S)-1-Aminomethyl-3-[1-(3-methoxy-benzyl)-piperidin-4-yl]-6-methyl-isochroman-5-ol dihydrochloride]
[1]
  Ki: 0.012 µM
D1 receptor
  EC50: 0.013 µM
[2]
  Ki: 0.575 µM

## Cc1ccc2c(c1O)C[C@@H](C1CCN(C3Cc4ccccc4C3)CC1)O[C@H]2CN [Example 32, (1R,3S)-1-Aminomethyl-3-(1-indan-2-yl-piperidin-4-yl)-6-methyl-isochroman-5-ol dihydrobromide]
[1]
  Ki: 0.022 µM
D1 receptor
  EC50: 0.012 µM
[2]
  Ki: 0.127 µM

## CCCCN1CCC([C@@H]2Cc3c(ccc(C)c3O)[C@H](CN)O2)CC1 [Example 33, (1R,3S)-1-Aminomethyl-3-(1-butyl-piperidin-4-yl)-6-methyl-isochroman-5-ol dihydrochloride]
[1]
  Ki: 0.07 µM
D1 receptor
  EC50: 0.013 µM
[2]
  Ki: ≥ 10 µM

## Cc1ccc2c(c1O)C[C@@H](C1CCN(CC3CCCCC3)CC1)O[C@H]2CN [Example 34, (1R,3S)-1-Aminomethyl-3-(1-cyclohexylmethyl-piperidin-4-yl)-6-methyl-isochroman-5-ol dihydrochloride]
[1]
  Ki: 0.047 µM
D1 receptor
  EC50: 0.066 µM
[2]
  Ki: ≥ 10 µM

## Cc1ccc2c(c1O)C[C@@H](C1CCN(Cc3ccccc3Cl)CC1)O[C@H]2CN [Example 35, (1R,3S)-1-Aminomethyl-3-[1-(2-chloro-benzyl)-piperidin-4-yl]-6-methyl-isochroman-5-ol dihydrobromide]
[1]
  Ki: 0.042 µM
D1 receptor
  EC50: 0.044 µM
[2]
  Ki: 0.096 µM

## Cc1ccc2c(c1O)C[C@@H](C1CCN(Cc3ccccc3)CC1)O[C@H]2CN1CCCC1 [Example 178, (1R,3S)-3-(1-Benzyl-piperidin-4-yl)-6-methyl-1-pyrrolidin-1-ylmethyl-isochroman-5-ol]
D1 receptor
  EC50: ≥ 10 µM
[2]
  Ki: 0.181 µM
